Drawing on ChEMBL document CHEMBL1131662, “Synthesis and structure-activity relationship of potent bicyclic lactam thrombin inhibitors” (Bioorg Med Chem Lett, 1999), this text covers Ki for 9 compounds.

What is called Ki is a measure of affinity in units of concentration, obtained from inhibition or displacement.

Structures are written as SMILES.

The first assay has as its target T1, Prothrombin (Homo sapiens, UniProt P00734). In words: In vitro inhibitory activity against human thrombin.(Slow moving component on HPLC).
Compound `C[C@]12CC[C@@H](CCCc3ccccc3)C(=O)N1[C@H](C(=O)NC(CCCN=C(N)N)C(=O)c1nccs1)CS2` (stereo not given in full) registered a Ki of 6 nM.

For another assay, the target named is T1, Prothrombin. In words: In vitro inhibitory activity against human thrombin.( Fast moving component on HPLC).
Compound `C[C@]12CC[C@@H](CCCc3ccccc3)C(=O)N1[C@H](C(=O)NC(CCCN=C(N)N)C(=O)c1nccs1)CS2` (stereo not given in full) yielded a Ki of 2 nM.

Another assay addresses T1, Prothrombin. Put plainly: In vitro inhibitory activity against human thrombin.
`C[C@]12CC[C@@H](c3ccc4nc(C(F)(F)F)ccc4c3)C(=O)N1[C@H](C(=O)NC(CCCN=C(N)N)C(=O)c1nccs1)CS2` (stereo not given in full) gave a Ki of 10 nM.

As to `C[C@]12CC[C@H](CCCc3ccccc3)C(=O)N1[C@H](C(=O)NC(CCCN=C(N)N)C(=O)c1nccs1)CS2` (stereo not given in full), the affinity, expressed as Ki, was 100 nM.

For `C[C@]12CC[C@@H](CCc3ccccc3)C(=O)N1[C@H](C(=O)NC(CCCN=C(N)N)C(=O)c1nc3ccccc3s1)CS2` (stereo not given in full), affinity was put at a Ki of 235 nM.

In the case of `C[C@]12CC[C@@H](c3ccc4nc(C(F)(F)F)ccc4c3)C(=O)N1[C@H](C(=O)NC(CCCN=C(N)N)C(=O)c1nc3ccccc3s1)CS2` (stereo not given in full), the inhibition constant (Ki) came out at 18 nM.

`C[C@]12CC[C@H](c3ccc4nc(C(F)(F)F)ccc4c3)C(=O)N1[C@H](C(=O)NC(CCCN=C(N)N)C(=O)c1nccs1)CS2` (stereo not given in full) showed a Ki of 150 nM.

As for `C[C@]12CC[C@H](CCc3ccccc3)C(=O)N1[C@H](C(=O)NC(CCCN=C(N)N)C(=O)c1nc3ccccc3s1)CS2` (stereo not given in full), the affinity, expressed as Ki, was 550 nM.

`C[C@]12CC[C@@H](Cc3ccccc3)C(=O)N1[C@H](C(=O)NC(CCCN=C(N)N)C(=O)c1nc3ccccc3s1)CS2` (stereo not given in full): the Ki is 18 nM.

The compound `NC(N)=NCCCC(NC(=O)[C@@H]1CS[C@H]2CC[C@H](Cc3ccccc3)C(=O)N21)C(=O)c1nc2ccccc2s1` (stereo not given in full) yielded a Ki of 1110 nM.
